Where two headings read alike, the source gives them in different places.
Key:
Tyk2 = Tyk2 (Homo sapiens (Human), UniProt P29597); assay: LanthaScreen JAK biochemical assay (Tyk2); conditions: for Ki: read-out: Tyk 2 (pKi) (converted)
JAK2 = JAK2 (Homo sapiens (Human), UniProt O60674); assay: LanthaScreen JAK biochemical assay (JAK2); conditions: for Ki: read-out: JAK 2 (pKi) (converted)
[1] = tested on: IL-4 induced STAT6 phosphorylation in THP-1 human monocytic cells; assay: Cellular JAK potency assay, THP-1
JAK1 = JAK1 (Homo sapiens (Human), UniProt P23458); assay: LanthaScreen JAK biochemical assay (JAK1)
JAK1, sequence (P23458 whole entry): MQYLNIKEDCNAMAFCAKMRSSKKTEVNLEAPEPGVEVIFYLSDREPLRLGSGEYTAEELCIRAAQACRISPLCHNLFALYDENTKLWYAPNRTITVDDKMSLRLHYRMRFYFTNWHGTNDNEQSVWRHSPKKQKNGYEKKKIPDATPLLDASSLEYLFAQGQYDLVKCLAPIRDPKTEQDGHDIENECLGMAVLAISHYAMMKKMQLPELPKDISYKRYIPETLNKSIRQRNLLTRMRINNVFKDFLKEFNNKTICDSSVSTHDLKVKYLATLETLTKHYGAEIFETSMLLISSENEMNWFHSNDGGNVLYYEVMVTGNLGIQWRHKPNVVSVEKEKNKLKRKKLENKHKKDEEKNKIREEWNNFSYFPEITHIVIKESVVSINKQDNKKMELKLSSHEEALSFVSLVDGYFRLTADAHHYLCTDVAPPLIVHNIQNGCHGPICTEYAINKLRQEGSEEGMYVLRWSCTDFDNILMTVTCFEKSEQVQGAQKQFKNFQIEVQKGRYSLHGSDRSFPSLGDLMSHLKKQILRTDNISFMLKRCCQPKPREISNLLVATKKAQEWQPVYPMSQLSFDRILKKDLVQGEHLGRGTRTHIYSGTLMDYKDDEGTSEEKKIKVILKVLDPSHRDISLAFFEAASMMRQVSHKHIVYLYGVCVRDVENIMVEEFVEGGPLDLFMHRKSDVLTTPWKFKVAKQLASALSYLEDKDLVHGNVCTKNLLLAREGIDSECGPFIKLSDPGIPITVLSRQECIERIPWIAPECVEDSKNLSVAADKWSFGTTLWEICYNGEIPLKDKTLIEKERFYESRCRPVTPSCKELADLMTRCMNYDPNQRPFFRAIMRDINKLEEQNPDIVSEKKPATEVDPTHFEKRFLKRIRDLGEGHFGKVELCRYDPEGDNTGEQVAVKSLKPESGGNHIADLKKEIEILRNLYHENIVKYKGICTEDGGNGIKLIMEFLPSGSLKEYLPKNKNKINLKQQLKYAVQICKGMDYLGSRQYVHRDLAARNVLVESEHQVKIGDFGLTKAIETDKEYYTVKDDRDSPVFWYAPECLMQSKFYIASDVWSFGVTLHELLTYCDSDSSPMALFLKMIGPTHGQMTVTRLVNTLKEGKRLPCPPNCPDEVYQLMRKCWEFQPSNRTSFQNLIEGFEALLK

[2] = tested on: IL-13 induced STAT6 phosphorylation in BEAS-2B human lung epithelial cells; assay: AlphaScreen cellular JAK potency assay, BEAS-2B
[3] = IL-4 induced STAT6 phosphorylation, THP-1 cells
[4] = Homo sapiens, THP-1, read-out: THP-1 IL4 pIC50 (converted)
[5] = read-out: JAK 1 (pKi) (converted)
[6] = Homo sapiens, BEAS-2B, read-out: BEAS2B pIC50 (converted)
[7] = IL-13 induced STAT6 phosphorylation, BEAS-2B cells
[8] = THP-1 cells, IL-4 induced STAT6 phosphorylation
[9] = BEAS-2B cells, IL-13 induced STAT6 phosphorylation

JAK2, sequence (O60674 whole entry): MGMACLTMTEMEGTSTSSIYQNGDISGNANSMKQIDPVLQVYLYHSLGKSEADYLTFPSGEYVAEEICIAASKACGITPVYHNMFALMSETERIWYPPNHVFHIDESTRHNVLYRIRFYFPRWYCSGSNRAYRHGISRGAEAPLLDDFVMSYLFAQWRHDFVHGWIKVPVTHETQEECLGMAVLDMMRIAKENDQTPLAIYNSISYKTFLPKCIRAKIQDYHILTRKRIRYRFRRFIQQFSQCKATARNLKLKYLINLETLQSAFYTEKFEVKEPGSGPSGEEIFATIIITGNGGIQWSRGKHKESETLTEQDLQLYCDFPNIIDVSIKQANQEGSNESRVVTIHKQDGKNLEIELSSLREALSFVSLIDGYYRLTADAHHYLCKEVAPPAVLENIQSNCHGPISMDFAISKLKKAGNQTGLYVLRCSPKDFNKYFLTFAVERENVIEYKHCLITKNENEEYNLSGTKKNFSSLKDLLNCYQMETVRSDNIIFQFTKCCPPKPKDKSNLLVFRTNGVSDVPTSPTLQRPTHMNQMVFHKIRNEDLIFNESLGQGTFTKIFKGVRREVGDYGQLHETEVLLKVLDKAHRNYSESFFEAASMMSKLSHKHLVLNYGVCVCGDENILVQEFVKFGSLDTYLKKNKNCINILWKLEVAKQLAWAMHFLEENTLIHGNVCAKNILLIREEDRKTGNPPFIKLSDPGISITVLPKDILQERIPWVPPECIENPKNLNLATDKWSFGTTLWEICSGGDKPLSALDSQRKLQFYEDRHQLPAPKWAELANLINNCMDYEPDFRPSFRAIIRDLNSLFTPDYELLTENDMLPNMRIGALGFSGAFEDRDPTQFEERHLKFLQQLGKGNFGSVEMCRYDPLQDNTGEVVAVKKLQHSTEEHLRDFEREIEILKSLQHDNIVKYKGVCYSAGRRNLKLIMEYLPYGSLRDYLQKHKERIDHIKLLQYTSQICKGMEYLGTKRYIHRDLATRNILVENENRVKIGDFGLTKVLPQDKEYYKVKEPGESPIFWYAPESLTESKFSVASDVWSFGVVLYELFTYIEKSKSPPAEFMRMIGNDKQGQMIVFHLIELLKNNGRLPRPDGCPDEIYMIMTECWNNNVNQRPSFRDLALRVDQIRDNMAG
Tyk2, sequence (P29597 whole entry): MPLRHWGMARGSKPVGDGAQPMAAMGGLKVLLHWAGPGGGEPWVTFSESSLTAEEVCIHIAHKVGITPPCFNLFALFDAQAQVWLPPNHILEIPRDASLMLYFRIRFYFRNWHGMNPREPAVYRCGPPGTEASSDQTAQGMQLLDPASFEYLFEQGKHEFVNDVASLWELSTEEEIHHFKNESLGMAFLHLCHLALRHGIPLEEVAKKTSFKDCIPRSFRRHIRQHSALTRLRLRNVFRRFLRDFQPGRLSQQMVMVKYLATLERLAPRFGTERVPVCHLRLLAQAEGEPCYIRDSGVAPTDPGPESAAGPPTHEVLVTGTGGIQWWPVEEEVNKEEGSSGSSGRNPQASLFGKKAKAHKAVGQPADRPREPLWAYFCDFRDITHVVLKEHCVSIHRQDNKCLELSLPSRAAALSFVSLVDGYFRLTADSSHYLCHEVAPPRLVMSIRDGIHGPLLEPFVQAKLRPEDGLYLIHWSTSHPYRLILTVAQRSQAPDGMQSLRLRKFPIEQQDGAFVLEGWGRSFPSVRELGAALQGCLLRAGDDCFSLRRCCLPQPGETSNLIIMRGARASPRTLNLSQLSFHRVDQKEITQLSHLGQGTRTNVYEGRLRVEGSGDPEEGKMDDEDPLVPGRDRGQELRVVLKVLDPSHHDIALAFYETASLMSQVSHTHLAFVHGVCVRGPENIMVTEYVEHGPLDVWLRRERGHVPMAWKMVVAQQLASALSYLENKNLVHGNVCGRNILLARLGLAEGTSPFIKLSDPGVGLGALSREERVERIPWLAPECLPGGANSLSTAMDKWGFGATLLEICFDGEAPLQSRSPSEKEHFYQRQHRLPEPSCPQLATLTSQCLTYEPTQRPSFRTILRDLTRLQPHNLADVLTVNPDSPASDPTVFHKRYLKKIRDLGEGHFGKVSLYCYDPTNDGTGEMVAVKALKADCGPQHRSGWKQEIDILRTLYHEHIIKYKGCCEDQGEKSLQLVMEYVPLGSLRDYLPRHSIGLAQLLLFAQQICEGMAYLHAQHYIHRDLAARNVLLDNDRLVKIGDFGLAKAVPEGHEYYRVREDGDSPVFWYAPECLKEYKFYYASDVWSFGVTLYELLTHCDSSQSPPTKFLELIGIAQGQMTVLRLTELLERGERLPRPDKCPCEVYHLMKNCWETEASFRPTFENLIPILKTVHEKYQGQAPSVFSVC

| SMILES | Tyk 2 (pKi) (Tyk2) | JAK 2 (pKi) (JAK2) | Ki (Tyk2) | IC50 [1, 4] | JAK 1 (pKi) (JAK1) | also measured |
| --- | --- | --- | --- | --- | --- | --- |
| Cc1cc(Nc2cc3ncccc3c(N[C@@H]3C[C@H]4CCC[C@@H](C3)N4CC(N)=O)n2)n[nH]1 [Example 1-37] | C (C represents a pKi value between 7 and 9 (Ki between 100 nM and 1 nM)) | A (A represents a pKi value≥10 (Ki≤0.1 nM)) |  |  |  | THP-1 IL4 pIC50 [1, 3]: B (B represents a pEC50 value between 6.7 and 7.5 (EC50 between 200 nM and 32 nM)) |
| Cc1cc(Nc2cc3ncccc3c(N[C@@H]3C[C@H]4CC[C@@H](C3)N4S(C)(=O)=O)n2)n[nH]1 [Example 4-1] |  |  | 0.1 to 1 nM | < 31.6 nM |  | Ki (JAK2): 0.1 to 1 nM |
| COc1ccnc2cc(Nc3cc(C)[nH]n3)nc(N[C@@H]3C[C@H]4CC[C@@H](C3)N4C3(CC#N)COC3)c12 [Example 7-10] |  |  | 0.1 to 1 nM |  |  | Ki (JAK2): 0.1 to 1 nM; Ki (JAK1; [5]): 0.1 to 1 nM |
| Cc1cc(Nc2cc3ncccc3c(N[C@@H]3C[C@H]4CCC[C@@H](C3)N4S(=O)(=O)CC(C)C)n2)n[nH]1 [Example 4-17] | B (B represents a pKi value between 9 and 10 (Ki between 1 nM and 0.1 nM)) | B (B represents a pKi value between 9 and 10 (Ki between 1 nM and 0.1 nM)) |  |  | B (B represents a pKi value between 9 and 10 (Ki between 1 nM and 0.1 nM)) | THP-1 IL4 pIC50 [1, 3]: A (A represents a pEC50 value≥7.5 (EC50≤32 nM)) |
| COc1cnc2cc(Nc3cc(C)[nH]n3)nc(N[C@@H]3C[C@H]4CC[C@@H](C3)N4S(C)(=O)=O)c2c1 [Example 6-18] |  |  | 0.1 to 1 nM | < 31.6 nM |  | IC50 [2, 6]: < 31.6 nM |
| CCOC(=O)N1[C@@H]2CCC[C@H]1C[C@H](Nc1nc(Nc3cc(C)[nH]n3)cc3ncccc13)C2 [Example 3-6] | B (B represents a pKi value between 9 and 10 (Ki between 1 nM and 0.1 nM)) |  |  |  | B (B represents a pKi value between 9 and 10 (Ki between 1 nM and 0.1 nM)) | THP-1 IL4 pIC50 [1, 3]: A (A represents a pEC50 value≥7.5 (EC50≤32 nM)) |
| Cc1cc(Nc2cc3ncccc3c(N[C@@H]3C[C@H]4CC[C@@H](C3)N4C(=O)CF)n2)n[nH]1 [Example 2-2] |  |  | 1 to 100 nM |  |  | Ki (JAK2): 1 to 100 nM; Ki (JAK1; [5]): 0.1 to 1 nM |
| Cc1cc(Nc2cc3ncccc3c(N[C@@H]3C[C@H]4CCC[C@@H](C3)N4S(=O)(=O)c3cncc(F)c3)n2)n[nH]1 [Example 14, N^5-((1R,3s,5S)-9-((5-fluoropyridin-3-yl)sulfonyl)-9-azabicyclo[3.3.1]nonan-3-yl)-N^7-(5-methyl-1H-pyrazol-3-yl)-1,6-naphthyridine-5,7-diamine] |  |  | 0.1 to 1 nM | < 31.6 nM |  | IC50 [2, 6]: < 31.6 nM |
| Cc1cc(Nc2cc3nc(CO)ccc3c(N[C@@H]3C[C@H]4CC[C@@H](C3)N4S(C)(=O)=O)n2)n[nH]1 [Example 5-12] |  |  | 0.1 to 1 nM | 31.6 to 200 nM |  |  |
| COC(=O)c1cnc2cc(Nc3cc(C)[nH]n3)nc(N[C@@H]3C[C@H]4CC[C@@H](C3)N4C3CCOC3=O)c2c1 (stereo partly shown) [Example 6-35] |  |  | 0.1 to 1 nM | 31.6 to 200 nM |  | Ki (JAK1; [5]): 0.1 to 1 nM |
| Cc1cc(Nc2cc3ncccc3c(N[C@@H]3C[C@H]4CCC[C@@H](C3)N4Cc3ccnc(C#N)c3)n2)n[nH]1 [Example 1-55] | C (C represents a pKi value between 7 and 9 (Ki between 100 nM and 1 nM)) |  |  |  |  | BEAS2B pIC50 [2, 7]: B (B represents a pEC50 value between 6.7 and 7.5 (EC50 between 200 nM and 32 nM)) |
| Cc1cc(Nc2cc3ncccc3c(N[C@@H]3C[C@H]4CC[C@@H](C3)N4C3CCCOC3=O)n2)n[nH]1 (stereo partly shown) [Example 1-28] |  |  | 1 to 100 nM | > 200 nM |  | Ki (JAK2): 1 to 100 nM |
| Cc1cc(Nc2cc3nc(CN4CCN(C)CC4)ccc3c(N[C@@H]3C[C@H]4CC[C@@H](C3)N4S(=O)(=O)N3CCC3)n2)n[nH]1 [Example 5-39] |  |  | 0.1 to 1 nM | 31.6 to 200 nM |  | Ki (JAK2): 0.1 to 1 nM; Ki (JAK1): 0.1 to 1 nM |
| Cc1cc(Nc2cc3nc(CS(C)(=O)=O)ccc3c(N[C@@H]3C[C@H]4CC[C@@H](C3)N4CCF)n2)n[nH]1 [Example 5-41] | B (B represents a pKi value between 9 and 10 (Ki between 1 nM and 0.1 nM)) | B (B represents a pKi value between 9 and 10 (Ki between 1 nM and 0.1 nM)) |  |  | B (B represents a pKi value between 9 and 10 (Ki between 1 nM and 0.1 nM)) | THP-1 IL4 pIC50 [1, 3]: C (C represents a pEC50 value<6.7 (EC50>200 nM)) |
| Cc1cc(Nc2cc3ncccc3c(N[C@@H]3C[C@H]4CCC[C@@H](C3)N4C(=O)c3ccc(C#N)nc3)n2)n[nH]1 [Example 2-28] | B (B represents a pKi value between 9 and 10 (Ki between 1 nM and 0.1 nM)) |  |  |  | B (B represents a pKi value between 9 and 10 (Ki between 1 nM and 0.1 nM)) | BEAS2B pIC50 [2, 7]: C (C represents a pEC50 value<6.7 (EC50>200 nM)) |
| COc1cnc2cc(Nc3cc(C)[nH]n3)nc(N[C@@H]3C[C@H]4CC[C@@H](C3)N4S(=O)(=O)CC3(C#N)CC3)c2c1 [Example 6-23] |  |  | 0.1 to 1 nM |  |  | Ki (JAK1; [5]): 0.1 to 1 nM; IC50 [2, 6]: 31.6 to 200 nM |
| COc1cnc2cc(Nc3cc(C)[nH]n3)nc(N[C@@H]3C[C@H]4CC[C@@H](C3)N4CCC#N)c2c1 [Example 6-11] | B (B represents a pKi value between 9 and 10 (Ki between 1 nM and 0.1 nM)) | B (B represents a pKi value between 9 and 10 (Ki between 1 nM and 0.1 nM)) |  |  | B (B represents a pKi value between 9 and 10 (Ki between 1 nM and 0.1 nM)) | THP-1 IL4 pIC50 [1, 8]: A (A represents a pEC50 value≥7.5 (EC50≤32 nM)) |
| Cc1cc(Nc2cc3ncccc3c(N[C@@H]3C[C@H]4CC[C@@H](C3)N4CC3(C#N)CC3)n2)n[nH]1 [Example 1-24] |  |  | 0.1 to 1 nM | 31.6 to 200 nM |  | Ki (JAK1; [5]): 0.1 to 1 nM; IC50 [2, 6]: < 31.6 nM |
| CCC1(S(=O)(=O)N2[C@@H]3CC[C@H]2C[C@H](Nc2nc(Nc4cc(C)[nH]n4)cc4ncccc24)C3)CC1 [Example 4-7] |  |  | 0.1 to 1 nM | < 31.6 nM |  | Ki (JAK2): 0.1 to 1 nM; Ki (JAK1): 0.1 to 1 nM |
| CCS(=O)(=O)N1[C@@H]2CC[C@H]1C[C@H](Nc1nc(Nc3cc(C)[nH]n3)cc3ncc(C(=O)OC)cc13)C2 [Example 6-34] |  |  | 0.1 to 1 nM | < 31.6 nM |  |  |
| Cc1cnc2cc(Nc3cc(C)[nH]n3)nc(N[C@@H]3C[C@H]4CC[C@@H](C3)N4S(=O)(=O)N3CC(C#N)C3)c2c1 [Example 6-4] |  |  | 0.1 to 1 nM | < 31.6 nM |  | Ki (JAK1; [5]): 0.1 to 1 nM; IC50 [2, 6]: < 31.6 nM |
| Cc1cnc2c(F)c(Nc3cc(C)[nH]n3)nc(N[C@@H]3C[C@H]4CC[C@@H](C3)N4S(=O)(=O)c3cccnc3)c2c1 [Example 8-20] | C (C represents a pKi value between 7 and 9 (Ki between 100 nM and 1 nM)) | C (C represents a pKi value between 7 and 9 (Ki between 100 nM and 1 nM)) |  |  | B (B represents a pKi value between 9 and 10 (Ki between 1 nM and 0.1 nM)) | THP-1 IL4 pIC50 [1, 8]: C (C represents a pEC50 value<6.7 (EC50>200 nM)) |
| COCCCN1[C@@H]2CC[C@H]1C[C@H](Nc1nc(Nc3cc(C)[nH]n3)cc3ncccc13)C2 [Example 1-15] | C (C represents a pKi value between 7 and 9 (Ki between 100 nM and 1 nM)) | C (C represents a pKi value between 7 and 9 (Ki between 100 nM and 1 nM)) |  |  | C (C represents a pKi value between 7 and 9 (Ki between 100 nM and 1 nM)) | THP-1 IL4 pIC50 [1, 3]: C (C represents a pEC50 value<6.7 (EC50>200 nM)) |
| COC(=O)c1cnc2cc(Nc3cc(C)[nH]n3)nc(N[C@@H]3C[C@H]4CC[C@@H](C3)N4S(C)(=O)=O)c2c1 [Example 6-33] |  |  | 0.1 to 1 nM | 31.6 to 200 nM |  |  |
| COc1cnc2cc(Nc3cc(C)[nH]n3)nc(N[C@@H]3C[C@H]4CCC[C@@H](C3)N4C(=O)CN(C)C)c2c1 [Example 6-30] | B (B represents a pKi value between 9 and 10 (Ki between 1 nM and 0.1 nM)) | B (B represents a pKi value between 9 and 10 (Ki between 1 nM and 0.1 nM)) |  |  | B (B represents a pKi value between 9 and 10 (Ki between 1 nM and 0.1 nM)) | THP-1 IL4 pIC50 [1, 8]: C (C represents a pEC50 value<6.7 (EC50>200 nM)) |
| Cc1cc(Nc2cc3ncccc3c(N[C@@H]3C[C@H]4CCC[C@@H](C3)N4CCC#N)n2)n[nH]1 [Example 1-31] |  | A (A represents a pKi value≥10 (Ki≤0.1 nM)) |  |  | A (A represents a pKi value≥10 (Ki≤0.1 nM)) | THP-1 IL4 pIC50 [1, 3]: A (A represents a pEC50 value≥7.5 (EC50≤32 nM)); BEAS2B pIC50 [2, 7]: A (A represents a pEC50 value≥7.5 (EC50≤32 nM)) |
| Cc1cc(Nc2cc3nc(CN4CCOCC4)ccc3c(N[C@@H]3C[C@H]4CCC[C@@H](C3)N4CCC#N)n2)n[nH]1 [Example 5-26] | B (B represents a pKi value between 9 and 10 (Ki between 1 nM and 0.1 nM)) | A (A represents a pKi value≥10 (Ki≤0.1 nM)) |  |  | A (A represents a pKi value≥10 (Ki≤0.1 nM)) | THP-1 IL4 pIC50 [1, 3]: A (A represents a pEC50 value≥7.5 (EC50≤32 nM)) |
| Cc1cc(Nc2nc(N[C@@H]3C[C@H]4CC[C@@H](C3)N4Cc3ccncc3)c3cccnc3c2F)n[nH]1 [Example 8-6] |  | B (B represents a pKi value between 9 and 10 (Ki between 1 nM and 0.1 nM)) |  |  | B (B represents a pKi value between 9 and 10 (Ki between 1 nM and 0.1 nM)) | THP-1 IL4 pIC50 [1, 8]: B (B represents a pEC50 value between 6.7 and 7.5 (EC50 between 200 nM and 32 nM)); BEAS2B pIC50 [2, 9]: B (B represents a pEC50 value between 6.7 and 7.5 (EC50 between 200 nM and 32 nM)) |
| COc1cnc2cc(Nc3cc(C)[nH]n3)nc(N[C@@H]3C[C@H]4CC[C@@H](C3)N4CCC(F)(F)F)c2c1 [Example 6-15] |  | B (B represents a pKi value between 9 and 10 (Ki between 1 nM and 0.1 nM)) |  |  | B (B represents a pKi value between 9 and 10 (Ki between 1 nM and 0.1 nM)) | THP-1 IL4 pIC50 [1, 8]: A (A represents a pEC50 value≥7.5 (EC50≤32 nM)); BEAS2B pIC50 [2, 9]: A (A represents a pEC50 value≥7.5 (EC50≤32 nM)) |

Source: patent publication US10072026B2, “Crystalline form of 3-((1R,3s,5S)-3-((7-((5-methyl-1H-pyrazol-3-yl)amino)-1,6-naphthyridin-5-yl)amino)-8-azabicyclo[3.2.1]octan-8-yl)propanenitrile” (priority 2015, dated 2018)
